pKi: −log10 of the molar value.
Tests used:
[1] = target: T1, Mitogen-activated protein kinase kinase kinase kinase 3 (Homo sapiens) (UniProt Q8IVH8); settings: at 10 µM
T1 sequence (whole entry): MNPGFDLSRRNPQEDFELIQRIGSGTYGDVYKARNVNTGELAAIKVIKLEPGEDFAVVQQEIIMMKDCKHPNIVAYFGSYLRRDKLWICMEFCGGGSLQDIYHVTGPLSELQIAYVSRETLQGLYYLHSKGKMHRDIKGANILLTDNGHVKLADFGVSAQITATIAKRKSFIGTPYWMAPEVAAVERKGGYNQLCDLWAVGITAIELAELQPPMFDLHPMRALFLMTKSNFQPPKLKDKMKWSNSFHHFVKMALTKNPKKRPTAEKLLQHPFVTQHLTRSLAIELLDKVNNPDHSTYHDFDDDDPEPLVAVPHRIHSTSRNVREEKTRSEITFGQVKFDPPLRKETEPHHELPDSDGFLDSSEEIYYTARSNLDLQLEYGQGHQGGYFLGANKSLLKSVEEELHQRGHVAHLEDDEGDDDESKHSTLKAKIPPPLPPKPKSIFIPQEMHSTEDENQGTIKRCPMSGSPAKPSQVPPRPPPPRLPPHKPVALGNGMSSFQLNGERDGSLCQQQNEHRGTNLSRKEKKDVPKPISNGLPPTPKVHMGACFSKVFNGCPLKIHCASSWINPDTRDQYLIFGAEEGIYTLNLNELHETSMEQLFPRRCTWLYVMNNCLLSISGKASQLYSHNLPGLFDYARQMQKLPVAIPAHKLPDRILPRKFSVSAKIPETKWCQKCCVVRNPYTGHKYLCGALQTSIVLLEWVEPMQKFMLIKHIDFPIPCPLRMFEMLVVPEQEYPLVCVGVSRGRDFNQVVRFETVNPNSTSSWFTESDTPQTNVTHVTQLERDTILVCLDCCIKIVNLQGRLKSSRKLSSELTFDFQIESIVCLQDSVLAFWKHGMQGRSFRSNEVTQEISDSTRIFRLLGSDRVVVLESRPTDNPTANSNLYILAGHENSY

[2] = target: Ribosomal protein S6 kinase alpha-6 (Homo sapiens, UniProt Q9UK32); experiment: Selectivity interaction (KinomeScan (DiscoverX)) EUB0000229b RPS6KA6; settings: at 10 µM
[3] = target: Calcium/calmodulin-dependent protein kinase type II subunit delta (Homo sapiens) (UniProt Q13557); experiment: Selectivity interaction (KinomeScan (DiscoverX)) EUB0000092b CAMK2D; settings: at 10 µM
[4] = target: High affinity nerve growth factor receptor (Homo sapiens, UniProt P04629); experiment: Selectivity interaction (Millipore kinase profiler) EUB0000124b NTRK1; settings: at 10 µM
[5] = target: Mitogen-activated protein kinase 14 (Homo sapiens, UniProt Q16539); experiment: Selectivity interaction (Millipore kinase profiler) EUB0000124b MAPK14; settings: at 10 µM
[6] = target: Serine/threonine-protein kinase 38-like (Homo sapiens) (UniProt Q9Y2H1); settings: at 10 µM
[7] = target: T2, Mitogen-activated protein kinase kinase kinase 6 (Homo sapiens) (UniProt O95382); experiment: Selectivity interaction (ActivX KiNativ screen (kinase selectivity in THP-1 cell lysates)) EUB0000639a MAP3K6; format: subcellular; settings: lysate, at 0.2 µM
T2 sequence (whole entry): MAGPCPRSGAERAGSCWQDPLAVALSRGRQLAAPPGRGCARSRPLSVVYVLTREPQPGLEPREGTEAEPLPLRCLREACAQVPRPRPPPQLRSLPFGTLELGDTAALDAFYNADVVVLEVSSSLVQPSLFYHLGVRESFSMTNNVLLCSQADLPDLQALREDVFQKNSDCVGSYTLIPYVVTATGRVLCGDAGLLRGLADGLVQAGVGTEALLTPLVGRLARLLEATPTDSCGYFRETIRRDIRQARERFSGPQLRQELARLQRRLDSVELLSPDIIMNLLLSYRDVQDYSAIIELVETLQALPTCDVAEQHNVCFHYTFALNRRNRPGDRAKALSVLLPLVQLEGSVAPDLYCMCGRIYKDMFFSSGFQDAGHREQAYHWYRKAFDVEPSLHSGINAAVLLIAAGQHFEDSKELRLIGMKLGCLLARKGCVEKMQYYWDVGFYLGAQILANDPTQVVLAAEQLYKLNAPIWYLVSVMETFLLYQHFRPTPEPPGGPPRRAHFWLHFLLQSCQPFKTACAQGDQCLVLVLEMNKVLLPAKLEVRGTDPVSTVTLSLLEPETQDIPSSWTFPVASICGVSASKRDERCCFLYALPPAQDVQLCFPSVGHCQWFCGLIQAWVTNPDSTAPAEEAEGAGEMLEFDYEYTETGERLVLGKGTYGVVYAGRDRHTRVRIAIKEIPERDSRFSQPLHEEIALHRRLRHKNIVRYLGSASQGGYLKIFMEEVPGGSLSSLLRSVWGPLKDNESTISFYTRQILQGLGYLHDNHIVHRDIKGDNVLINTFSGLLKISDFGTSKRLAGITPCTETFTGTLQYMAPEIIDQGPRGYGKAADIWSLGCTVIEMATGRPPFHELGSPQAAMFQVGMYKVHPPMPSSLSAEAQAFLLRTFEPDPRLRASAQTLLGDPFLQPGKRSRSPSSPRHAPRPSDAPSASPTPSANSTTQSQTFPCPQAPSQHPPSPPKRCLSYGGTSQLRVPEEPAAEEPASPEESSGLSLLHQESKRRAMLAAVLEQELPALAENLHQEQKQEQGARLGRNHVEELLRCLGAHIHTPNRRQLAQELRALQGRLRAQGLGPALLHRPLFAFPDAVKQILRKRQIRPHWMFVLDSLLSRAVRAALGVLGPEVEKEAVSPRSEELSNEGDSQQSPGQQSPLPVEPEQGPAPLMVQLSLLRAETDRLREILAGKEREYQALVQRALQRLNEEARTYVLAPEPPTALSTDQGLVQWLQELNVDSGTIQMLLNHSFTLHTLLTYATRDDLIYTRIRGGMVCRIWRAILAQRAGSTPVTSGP

[8] = target: Calcium/calmodulin-dependent protein kinase type II subunit delta (Homo sapiens) (UniProt Q13557); experiment: Selectivity interaction (KinomeScan (DiscoverX)) EUB0000595a CAMK2D; settings: at 10 µM
[9] = target: Diacylglycerol kinase beta (Homo sapiens) (UniProt Q9Y6T7); experiment: Selectivity interaction (Kinase panel (literature)) EUB0001199aCl DGKB; settings: at 1 µM
[10] = target: cAMP-dependent protein kinase catalytic subunit alpha (Homo sapiens, UniProt P17612); experiment: Selectivity interaction (Kinase counterscreening (biochemical assay)) EUB0000604a PRKACA
[11] = target: Protein kinase C beta type (Homo sapiens, UniProt P05771); experiment: Selectivity interaction (Kinase screening (Nanosyn)) EUB0000604a PRKCB
Chain of Protein kinase C beta type (P05771 2-671 limits assumed): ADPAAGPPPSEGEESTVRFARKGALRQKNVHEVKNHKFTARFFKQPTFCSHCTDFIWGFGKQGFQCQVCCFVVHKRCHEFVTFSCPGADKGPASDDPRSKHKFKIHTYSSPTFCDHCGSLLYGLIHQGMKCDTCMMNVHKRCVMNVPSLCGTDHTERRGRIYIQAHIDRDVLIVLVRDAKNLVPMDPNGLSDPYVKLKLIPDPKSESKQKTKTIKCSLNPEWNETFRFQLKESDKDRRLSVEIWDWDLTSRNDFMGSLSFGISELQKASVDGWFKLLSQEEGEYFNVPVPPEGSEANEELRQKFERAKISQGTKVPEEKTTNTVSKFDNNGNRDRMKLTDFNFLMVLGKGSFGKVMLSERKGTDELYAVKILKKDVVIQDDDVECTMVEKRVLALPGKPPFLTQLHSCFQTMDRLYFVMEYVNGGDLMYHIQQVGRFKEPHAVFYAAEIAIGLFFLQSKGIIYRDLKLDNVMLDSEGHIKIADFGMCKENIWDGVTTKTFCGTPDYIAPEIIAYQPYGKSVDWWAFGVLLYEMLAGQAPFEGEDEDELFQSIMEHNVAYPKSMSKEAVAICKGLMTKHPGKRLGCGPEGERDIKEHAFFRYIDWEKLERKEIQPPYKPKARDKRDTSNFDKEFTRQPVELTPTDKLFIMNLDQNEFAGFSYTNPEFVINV

Chain of Calcium/calmodulin-dependent protein kinase type II subunit delta (Homo sapiens) (Q13557 whole entry): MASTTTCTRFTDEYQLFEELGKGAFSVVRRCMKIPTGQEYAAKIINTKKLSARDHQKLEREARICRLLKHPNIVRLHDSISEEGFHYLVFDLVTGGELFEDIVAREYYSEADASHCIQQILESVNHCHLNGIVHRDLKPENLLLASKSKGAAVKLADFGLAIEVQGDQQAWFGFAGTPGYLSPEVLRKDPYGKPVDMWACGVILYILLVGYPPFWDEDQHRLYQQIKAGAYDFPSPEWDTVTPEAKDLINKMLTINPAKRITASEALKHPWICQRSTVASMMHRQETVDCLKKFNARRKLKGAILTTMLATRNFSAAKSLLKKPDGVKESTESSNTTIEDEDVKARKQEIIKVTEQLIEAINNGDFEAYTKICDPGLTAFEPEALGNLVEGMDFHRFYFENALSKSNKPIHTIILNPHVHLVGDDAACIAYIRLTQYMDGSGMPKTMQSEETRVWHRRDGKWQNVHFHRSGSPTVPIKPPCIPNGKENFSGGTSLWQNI
Chain of Mitogen-activated protein kinase 14 (Q16539 whole entry): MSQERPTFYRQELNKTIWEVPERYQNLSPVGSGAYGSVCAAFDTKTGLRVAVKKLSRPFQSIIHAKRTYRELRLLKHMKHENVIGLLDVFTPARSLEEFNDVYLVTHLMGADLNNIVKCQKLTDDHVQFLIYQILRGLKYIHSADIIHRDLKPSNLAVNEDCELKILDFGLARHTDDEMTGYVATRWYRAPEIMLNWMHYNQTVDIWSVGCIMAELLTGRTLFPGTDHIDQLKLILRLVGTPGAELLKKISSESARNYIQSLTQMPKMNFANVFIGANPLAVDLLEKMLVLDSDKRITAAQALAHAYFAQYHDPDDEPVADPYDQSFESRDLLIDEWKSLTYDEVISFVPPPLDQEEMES
Chain of Serine/threonine-protein kinase 38-like (Homo sapiens) (Q9Y2H1 2-464 limits assumed): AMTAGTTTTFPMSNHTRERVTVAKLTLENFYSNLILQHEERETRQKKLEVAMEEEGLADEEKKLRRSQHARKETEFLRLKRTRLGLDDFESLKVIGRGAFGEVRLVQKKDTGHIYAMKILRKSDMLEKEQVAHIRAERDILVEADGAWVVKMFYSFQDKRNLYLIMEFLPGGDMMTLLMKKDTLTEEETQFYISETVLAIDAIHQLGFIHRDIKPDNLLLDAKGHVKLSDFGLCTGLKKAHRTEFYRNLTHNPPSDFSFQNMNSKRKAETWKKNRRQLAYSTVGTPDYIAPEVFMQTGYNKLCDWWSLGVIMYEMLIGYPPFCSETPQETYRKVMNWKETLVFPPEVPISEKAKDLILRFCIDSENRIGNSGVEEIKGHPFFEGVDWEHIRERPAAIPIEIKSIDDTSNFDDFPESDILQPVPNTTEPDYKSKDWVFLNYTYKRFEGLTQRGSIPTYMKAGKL
Chain of High affinity nerve growth factor receptor (P04629 33-796 limits assumed): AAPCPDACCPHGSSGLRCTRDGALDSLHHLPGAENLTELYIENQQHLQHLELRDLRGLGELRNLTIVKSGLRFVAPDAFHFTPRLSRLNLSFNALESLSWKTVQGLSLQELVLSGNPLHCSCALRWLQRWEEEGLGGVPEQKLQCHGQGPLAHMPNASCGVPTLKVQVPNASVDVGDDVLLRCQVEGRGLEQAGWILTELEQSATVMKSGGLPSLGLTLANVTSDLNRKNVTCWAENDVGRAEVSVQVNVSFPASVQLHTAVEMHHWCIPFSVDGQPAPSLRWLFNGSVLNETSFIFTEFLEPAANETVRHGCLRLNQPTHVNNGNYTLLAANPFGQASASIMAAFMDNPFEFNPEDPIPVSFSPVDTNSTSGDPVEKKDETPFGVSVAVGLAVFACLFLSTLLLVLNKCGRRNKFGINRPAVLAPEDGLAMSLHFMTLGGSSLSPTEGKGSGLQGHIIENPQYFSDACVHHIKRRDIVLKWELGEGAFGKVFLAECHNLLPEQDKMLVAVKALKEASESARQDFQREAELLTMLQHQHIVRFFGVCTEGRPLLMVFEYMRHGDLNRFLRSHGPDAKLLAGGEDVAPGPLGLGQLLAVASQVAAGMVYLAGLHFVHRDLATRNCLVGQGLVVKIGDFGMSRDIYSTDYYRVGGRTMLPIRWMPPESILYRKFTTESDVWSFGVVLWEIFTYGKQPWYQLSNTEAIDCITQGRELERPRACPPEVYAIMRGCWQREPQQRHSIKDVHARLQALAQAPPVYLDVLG
Chain of Ribosomal protein S6 kinase alpha-6 (Q9UK32 whole entry): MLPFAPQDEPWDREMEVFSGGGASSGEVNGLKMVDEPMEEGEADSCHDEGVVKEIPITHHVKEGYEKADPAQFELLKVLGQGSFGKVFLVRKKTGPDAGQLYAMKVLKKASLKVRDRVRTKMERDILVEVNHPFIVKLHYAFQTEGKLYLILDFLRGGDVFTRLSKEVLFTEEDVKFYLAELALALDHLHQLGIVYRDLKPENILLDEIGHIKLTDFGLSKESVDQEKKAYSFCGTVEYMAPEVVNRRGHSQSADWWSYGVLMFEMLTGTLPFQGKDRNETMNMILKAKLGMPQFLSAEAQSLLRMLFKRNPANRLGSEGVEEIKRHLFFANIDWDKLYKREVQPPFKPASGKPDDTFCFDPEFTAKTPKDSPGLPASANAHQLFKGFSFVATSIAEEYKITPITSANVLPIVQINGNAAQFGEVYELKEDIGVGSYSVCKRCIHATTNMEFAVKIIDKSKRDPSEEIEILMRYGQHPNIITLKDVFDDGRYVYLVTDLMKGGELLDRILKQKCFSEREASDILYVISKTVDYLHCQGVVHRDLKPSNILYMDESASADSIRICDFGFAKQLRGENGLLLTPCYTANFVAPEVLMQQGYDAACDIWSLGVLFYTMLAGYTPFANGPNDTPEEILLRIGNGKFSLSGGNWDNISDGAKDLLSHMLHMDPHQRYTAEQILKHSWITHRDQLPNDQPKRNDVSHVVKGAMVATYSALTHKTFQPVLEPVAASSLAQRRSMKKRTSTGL

Q: How did the % of control [1] turn out when `CCN(CC)CCCCNc1ncc2cc(-c3cc(OC)cc(OC)c3)c(NC(=O)NC(C)(C)C)nc2n1` was run?
A: 100%

Q: With `COc1cc(N(C)c2ccnc3ccc(C(F)(F)F)cc23)cc(OC)c1OC` as the molecule, how does the % binding [2] read?
A: 74%

Q: For `CCC(=O)N1CCN(c2ccc(-n3c(=O)ccc4cnc5ccc(-c6cnc7ccccc7c6)cc5c43)cc2C(F)(F)F)CC1`, which % of control [3] is on record?
A: 72%

Q: How did the % of control [4] turn out when `CC(=O)Nc1cccc(-n2c(=O)n(C3CC3)c(=O)c3c(Nc4ccc(I)cc4F)n(C)c(=O)c(C)c32)c1` was run?
A: 59%

Q: What about the % of control [5] of the same molecule?
A: 84%

Q: Which % of control [6] does the source give for `Cc1cc([C@@H](C)Nc2ccccc2C(=O)O)c2nc(N3CCOCC3)cc(=O)n2c1` [AZD-6482] here?
A: 94%

Q: With `CC[C@@H]1[C@H](F)C(=O)N[C@@H]1COc1nccc2cc(C(N)=O)c(OC)cc12` [ZIMLOVISERTIB] as the molecule, how does the % of inhibition [7] read?
A: -13.5%

Q: Which % of control [8] does the source give for `COCC(=O)NC/C=C/c1ccc2ncnc(Nc3ccc(Oc4ccc(C)nc4)c(C)c3)c2c1` [CP-724714] here?
A: 100%

Q: How did the % of inhibition [9] turn out when `CN1Cc2nccc(-c3cn(C)nc3-c3ccc(F)cc3)c2C1=O` was run?
A: -9%

Q: `Cc1cnc(Nc2ccc(F)cc2Cl)nc1-c1c[nH]c(C(=O)N[C@H](CO)c2cccc(Cl)c2)c1` was tested. Which pKi [10] did it give?
A: < 5.40

Q: What about the % of inhibition [11] of the same molecule?
A: 4%

Source: ChEMBL document CHEMBL5465560, “Selectivity Literature for EUbOPEN Chemogenomic Library” (2024)
